The text below walks through data of PubChem BioAssay (NCI).

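Values below derive from 48-hour exposures of cells grown in 96-well plates, with endpoints linearly interpolated between the two concentrations bracketing the appropriate inhibition level. TGI denotes the concentration required for complete inhibition of growth.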

Assay in all cases: growth of human tumour cells (NCI), 48 h
Assay [1] deals with 786-0 renal.
Assay [2] deals with A498 renal.
The test system of assay [3] is A549 NSCLC.
Assay [4] concerns COLO 205 colon.
The test system of assay [5] is HCT-116 colon.
The subject of assay [6] is HOP-62 NSCLC.
The subject of assay [7] is HS 578T breast.
In assay [8] the test system is HT29 colon.
For assay [9], the system named is MALME-3M melanoma.
Assay [10] relates to MDA-MB-231 breast.
Assay [11] concerns MDA-MB-435.
Assay [12] has as its system NCI-H460 lung.
Assay [13] relates to NCI/ADR-RES ovarian.
The test system of assay [14] is OVCAR-3 ovarian.
Assay [15] concerns OVCAR-5 ovarian.
Assay [16] deals with RPMI-8226 leukemia.
Assay [17] has as its system SF-539 CNS.
Assay [18] has as its system SN12C renal.
Assay [19] deals with T-47D breast.
Assay [20] deals with NCI-H522 lung.

As for `Cc1cc(C)nc(NC(=S)Nc2cccc(Cl)c2)c1`, the TGI in assay [1], in [2], in [3], in assay [4], in [5] and in assay [6] was > 100 µM throughout. The TGI in assay [7], in assay [8], in assay [9], in assay [10], in [11] and in assay [12] was > 100 µM in each case. Besides, the TGI in assay [13], in [14], in [15], in [16], in assay [17] and in assay [18] was > 100 µM in each case. Besides, in [19], the TGI is > 100 µM.

`Brc1ccc(-c2ccc(-c3ccc(-c4ccc(Br)s4)s3)s2)s1`: the TGI in assay [1], in assay [2], in [3], in assay [4], in assay [5] and in assay [6] was > 100 µM each time. Besides, the TGI in assay [7], in [8], in assay [10], in assay [11], in [12] and in assay [13] was > 100 µM each time. For the same compound, the TGI in assay [14], in assay [15], in [16], in assay [17], in assay [18] and in [19] was > 100 µM in each case.

For the compound `C#CCn1c(=O)c(C)cn(/C(=C/C(=O)OCC)C(=O)OCC)c1=O`, the TGI is 19.4 µM in assay [1]; 31.5 µM in assay [2]; 32.4 µM in [3]; > 22.7 µM in assay [4]; 13.7 µM in assay [5]; 30.5 µM in assay [6]. Moreover, the TGI in assay [7] is 30 µM; in assay [8] it was 4.88 µM; in assay [9] it was 4.07 µM; in assay [10], 36.3 µM; in assay [11], 20.5 µM; in assay [12], 7.83 µM. For the same compound, the TGI was 10.6 µM in [13]; 19.6 µM in assay [14]; 16 µM in assay [15]; > 27.7 µM in assay [16]; 4.77 µM in [17]; 26.2 µM in assay [18]. The compound also had a TGI in [19] of 20.3 µM.

In the case of `COc1cc(O)c2c(=O)c3ccccc3n(C)c2c1`, the TGI in [1] was > 100 µM; in [2], > 100 µM; in assay [3], > 100 µM; in assay [4], > 100 µM; in assay [5] it was > 100 µM; in assay [6], 79 µM. In addition, the TGI is 59.2 µM in assay [7]; > 100 µM in assay [8]; > 100 µM in assay [9]; > 100 µM in assay [10]; > 100 µM in assay [11]; > 100 µM in assay [12]. The TGI in [20], in assay [13], in [14], in assay [15], in assay [17] and in assay [18] was > 100 µM in each case. For the same compound, the TGI in [19] was > 100 µM.

Consider `CC(C)(C)OC(=O)N1C[C@H](CC(=O)OCc2ccccc2)C[C@H]1C(=O)OCC(Cl)(Cl)Cl`, for which the TGI in assay [1] is > 50 µM; in [2], 25.9 µM; in assay [3] it was > 50 µM; in assay [4], 9.38 µM; in assay [5], > 50 µM; in assay [6] it was > 50 µM. Also, the TGI in assay [7] was > 50 µM; in [8], > 50 µM; in assay [9], 25.3 µM; in [10], > 50 µM; in assay [11], > 50 µM; in assay [12] it was > 50 µM. Besides, the TGI in assay [20] was 13.6 µM; in assay [13] it was > 50 µM; in assay [14] it was 32.9 µM; in assay [15], > 50 µM; in [17], > 50 µM; in assay [18], > 50 µM. In addition, the TGI in assay [19] was > 50 µM.

`CC(C)=C1C(=O)C[C@]2(C)C/C=C(\C)CC/C=C(\C)CC[C@@H]12`: the TGI in assay [1] is 16.7 µM; in [2], 47.9 µM; in [3], > 50 µM; in assay [4], 16.6 µM; in assay [5], 15.9 µM; in [6], 18.5 µM. The TGI worked out at 28 µM in assay [7]; 16.4 µM in [8]; 15.4 µM in [10]; 20 µM in assay [11]; 13.9 µM in [20]; 14.8 µM in assay [13]. Besides, the TGI was 18.1 µM in assay [14]; 32.1 µM in assay [15]; 36.9 µM in assay [16]; 15.8 µM in assay [17]; 17.3 µM in assay [18]; > 50 µM in assay [19].

On to `C/C(=N\N=C(\N)OB(F)F)c1ccccn1`, for which the TGI in assay [1], in [2], in [3], in assay [4], in [5] and in [6] was > 100 µM each time. Further, the TGI in assay [7], in assay [8], in [9], in [10], in assay [11] and in [12] was > 100 µM each time. Besides, the TGI in [20], in assay [13], in [14], in [15], in [17] and in assay [18] was > 100 µM throughout. Besides, the TGI in assay [19] was > 100 µM.
